This note sets out measurements from PubChem BioAssay (NCI).

Among the test systems are HCT-15 colon; HS 578T breast; KM12 colon; SK-MEL-2 melanoma; IGROV1 ovarian; SK-OV-3 ovarian; A549 NSCLC; ACHN renal; NCI-H460 lung; K-562 leukemia.
Common to all, as to experiment: DTP human tumour cell line panel, 48 h

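Interpolation was linear, between the two tested concentrations surrounding the appropriate level; five concentrations were tested over 48 hours in 96-well plates. The concentration for 50% growth inhibition is given as GI50. TGI denotes the concentration required for complete inhibition of growth.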 Where only a bound is given, the exact number is not on record here.

For the molecule `COc1cc(OC)c(/C=C/S(=O)(=O)Cc2cnc(OC)c(N)c2)c(OC)c1`, the GI50 with HCT-15 colon is less than 0.019 µM; in the test on HS 578T breast, less than 0.0202 µM; in the test on KM12 colon, less than 0.0157 µM; with SK-MEL-2 melanoma it was less than 0.01 µM; in the test with IGROV1 ovarian, less than 0.0297 µM; in the test with SK-OV-3 ovarian it was less than 0.0211 µM. Further, the GI50 is less than 0.0263 µM in the test on A549 NSCLC, less than 0.0233 µM in the test on ACHN renal, less than 0.02 µM with NCI-H460 lung and less than 0.013 µM with K-562 leukemia. The concentration for total growth inhibition (TGI) with HCT-15 colon, with HS 578T breast, in the test with KM12 colon, in the test on SK-MEL-2 melanoma, in the test with IGROV1 ovarian and in the test on SK-OV-3 ovarian was more than 100 µM in each case. The TGI with A549 NSCLC, in the test on ACHN renal, in the test with NCI-H460 lung and in the test on K-562 leukemia was more than 100 µM in each case.
Turning to `Cn1c([N+](=O)[O-])cnc1/C=C1\Oc2ccccc2C1=O`, the GI50 in the test with HCT-15 colon was 0.193 µM; in the test with HS 578T breast, 1.15 µM; with KM12 colon, 0.412 µM; in the test on SK-MEL-2 melanoma, 0.255 µM; with IGROV1 ovarian, 0.6 µM; with SK-OV-3 ovarian it was 1.62 µM. Also, the GI50 is 1.02 µM with A549 NSCLC, 0.197 µM in the test on ACHN renal, 0.314 µM in the test with NCI-H460 lung and 0.487 µM with K-562 leukemia. Moreover, the TGI in the test on HCT-15 colon worked out at 0.675 µM; with KM12 colon, 2.46 µM; with SK-MEL-2 melanoma, 0.663 µM; in the test with IGROV1 ovarian it was 5.87 µM; in the test with SK-OV-3 ovarian, 6.34 µM; in the test on A549 NSCLC, 5.12 µM. The TGI with ACHN renal was 0.632 µM; with NCI-H460 lung it was 1.72 µM; with K-562 leukemia, 7.02 µM.
On to `COc1ccc(/C=C2\CCC(CNc3cc(C)on3)C2=O)cc1` (centres undefined), for which the TGI in the test on HCT-15 colon, in the test on HS 578T breast, with KM12 colon, with SK-MEL-2 melanoma, in the test with IGROV1 ovarian and with SK-OV-3 ovarian was more than 100 µM each time. The TGI in the test on A549 NSCLC, in the test with ACHN renal, with NCI-H460 lung and with K-562 leukemia was more than 100 µM in each case.
For the molecule `O=C(/C=C/c1ccc(F)cc1)c1ccc(Cl)cc1Cl`, the GI50 in the test with HCT-15 colon was 43.8 µM; with HS 578T breast it was 54.3 µM; in the test on KM12 colon, 38.1 µM; in the test with SK-MEL-2 melanoma, more than 100 µM; with IGROV1 ovarian, more than 100 µM; in the test on SK-OV-3 ovarian it was more than 100 µM. The GI50 in the test with A549 NSCLC was 33.5 µM; in the test on ACHN renal, more than 100 µM; in the test with NCI-H460 lung, 65.6 µM; in the test on K-562 leukemia, 33.9 µM. The TGI in the test on HCT-15 colon, with HS 578T breast, in the test on KM12 colon, in the test with SK-MEL-2 melanoma, with IGROV1 ovarian and with SK-OV-3 ovarian was more than 100 µM each time. Also, the TGI in the test with A549 NSCLC, in the test on ACHN renal, in the test on NCI-H460 lung and with K-562 leukemia was more than 100 µM each time.
In the case of `COc1cc(Nc2nccc(Nc3ccc4c(C)[nH]nc4c3)n2)cc(OC)c1OC`, the GI50 in the test on HCT-15 colon was 2.84 µM; in the test with HS 578T breast, 0.604 µM; in the test on KM12 colon, 0.68 µM; in the test on SK-MEL-2 melanoma it was 1.23 µM; in the test on IGROV1 ovarian it was 0.858 µM; with SK-OV-3 ovarian it was 1.53 µM. In addition, the GI50 is 1.26 µM in the test with A549 NSCLC, 1.9 µM with ACHN renal, 1.29 µM with NCI-H460 lung and 1.4 µM with K-562 leukemia. The concentration for total growth inhibition (TGI) is more than 25 µM in the test on HCT-15 colon; 5.15 µM in the test with HS 578T breast; 3.06 µM in the test on KM12 colon; 5.09 µM with SK-MEL-2 melanoma; 5.6 µM in the test with IGROV1 ovarian; 6.64 µM with SK-OV-3 ovarian. The TGI is 5.41 µM in the test with A549 NSCLC, more than 25 µM with ACHN renal, 5.3 µM in the test with NCI-H460 lung and more than 25 µM in the test on K-562 leukemia.
As to `O=c1c2c(nc3n1CCS3)[nH]c1ccccc12`, the GI50 in the test on HCT-15 colon was more than 100 µM; in the test on HS 578T breast, 73.6 µM; with KM12 colon, more than 100 µM; with SK-MEL-2 melanoma, more than 100 µM; in the test on IGROV1 ovarian it was 17.8 µM; in the test on SK-OV-3 ovarian, more than 100 µM. For the same molecule, the GI50 is 90.1 µM with A549 NSCLC, more than 100 µM in the test with ACHN renal, more than 100 µM with NCI-H460 lung and more than 100 µM with K-562 leukemia. Besides, the TGI in the test on HCT-15 colon, in the test on HS 578T breast, with KM12 colon, in the test with SK-MEL-2 melanoma, in the test on IGROV1 ovarian and with SK-OV-3 ovarian was more than 100 µM throughout. Moreover, the TGI in the test with A549 NSCLC, with ACHN renal, with NCI-H460 lung and in the test on K-562 leukemia was more than 100 µM throughout.
